{
  "source": "paper PMC6418145",
  "about": "(Scientific Reports, 2019)",
  "key": {"[1]": {"test_system": "5-HT1B serotonin receptor", "test": "Off-target radioligand binding", "design": "species or system human", "settings": "10 μM compound"}, "[2]": {"molecular_target": "PDE3A (Homo sapiens, UniProt Q14432)", "sequence (Q14432 whole entry, species assumed)": "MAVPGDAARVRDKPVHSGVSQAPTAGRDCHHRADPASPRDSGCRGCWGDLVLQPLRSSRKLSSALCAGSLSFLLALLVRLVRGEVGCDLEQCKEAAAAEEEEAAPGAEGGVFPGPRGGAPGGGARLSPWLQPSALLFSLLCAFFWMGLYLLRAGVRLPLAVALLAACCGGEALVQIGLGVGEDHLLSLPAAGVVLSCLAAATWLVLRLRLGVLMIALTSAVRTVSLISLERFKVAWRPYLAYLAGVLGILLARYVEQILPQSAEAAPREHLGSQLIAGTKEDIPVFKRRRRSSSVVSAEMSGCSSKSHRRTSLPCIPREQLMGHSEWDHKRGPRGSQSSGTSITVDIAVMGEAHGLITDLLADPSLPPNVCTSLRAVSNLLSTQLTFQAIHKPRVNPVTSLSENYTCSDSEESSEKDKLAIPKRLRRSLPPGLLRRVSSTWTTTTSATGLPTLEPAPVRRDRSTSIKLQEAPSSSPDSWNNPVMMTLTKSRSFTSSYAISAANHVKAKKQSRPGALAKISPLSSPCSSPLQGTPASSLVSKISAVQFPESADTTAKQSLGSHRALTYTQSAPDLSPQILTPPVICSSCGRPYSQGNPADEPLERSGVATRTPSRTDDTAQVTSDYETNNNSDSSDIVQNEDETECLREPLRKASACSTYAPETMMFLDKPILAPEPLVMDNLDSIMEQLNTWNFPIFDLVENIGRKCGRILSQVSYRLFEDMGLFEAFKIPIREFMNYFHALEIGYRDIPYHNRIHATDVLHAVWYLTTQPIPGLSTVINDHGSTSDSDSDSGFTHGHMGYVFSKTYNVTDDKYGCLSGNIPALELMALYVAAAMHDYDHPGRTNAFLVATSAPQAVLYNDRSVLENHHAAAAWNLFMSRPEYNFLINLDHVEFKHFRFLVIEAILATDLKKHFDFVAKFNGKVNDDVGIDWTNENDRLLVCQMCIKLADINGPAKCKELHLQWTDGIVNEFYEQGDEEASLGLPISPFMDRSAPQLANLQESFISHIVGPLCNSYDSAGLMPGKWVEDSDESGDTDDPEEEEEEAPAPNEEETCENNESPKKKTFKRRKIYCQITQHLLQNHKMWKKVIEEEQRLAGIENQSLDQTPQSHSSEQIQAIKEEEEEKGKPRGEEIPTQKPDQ", "test": "Off-target enzyme assay", "format": "biochemical", "settings": "10 μM compound, not shown"}, "[3]": {"test_system": "C57BL/6 J mice", "test": "5-choice serial-reaction-time task (5-CSRTT), unspecific behavioural effects", "format": "in vivo", "procedure": "Training was performed in 16 standard mouse Bussey-Saksida touchscreen chambers (model #80614, Campden Instruments Ltd., UK), previously described in detail. In short, each trapezoidal operant chamber was placed in a sound- and light- attenuating box individually equipped with a house light, a reward magazine with light, a liquid reward dispenser, a sound generator, a perforated stainless steel floor, and a touchscreen placed at the wide end of the chamber and covered permanently by a black acrylic glass 5-hole mask. The reward magazine, located opposite the touchscreen, was connected to a liquid dispenser delivering strawberry milk (Yazoo®). Infrared break-beam sensors located inside and on the front of the food magazine as well as on the touch-screen walls allowed the detection of reward delivery and the animal’s locomotor activity, respectively. Four individual chambers were connected to one computer for controlling the task flow using the graphical task design software ABET II Touch (model #89505, Campden Instruments Ltd., UK) and the WhiskerServer software (Cambridge University Technical Services Ltd., UK)[27].\nMice were habituated to the chambers for three consecutive 20-min sessions during which the house light and magazine light were permanently on. At the start of each session, 30 µl strawberry milk was delivered. Every 15 s after head entry into the magazine, an additional 30 µl strawberry milk was delivered. Head entry turned the magazine light off.\nThe 5-CSRTT training protocol, originally designed for rats[28], was similar as that previously described for mice[29]–[31]. The training comprised six stages with 30-min sessions initiated by the illumination of the house and magazine lights and delivery of 20 µl strawberry milk. Collection of the reward switched the magazine light off and started the first trial.\nIn the first stage, the middle window was permanently illuminated, which was turned off when touched, followed by reward delivery (20 µl) with illumination of the magazine light. Head entry switched off the magazine light. Mice performing 30 trials in a session continued to the next stage. Training sessions in stages 2–6 comprised a maximum of 120 trials. Collection of the reward initiated the inter-trial interval (ITI) followed by the illumination of one pseudo-randomly selected aperture for a fixed stimulus duration (SD). Any touch to the screen during the ITI was classified as a premature response which was not counted as a trial and terminated the current trial. Following stimulus detection, a nose poke to the corresponding aperture within a fixed time interval (limited hold; LH) was required for reward delivery. Premature responses made during the ITI, incorrect responses, and the omission of a response within the LH led to a timeout (TO, house light switched off for 4 s) instead of delivery of reward. Correct, incorrect and omitted responses defined the total number of trials. […] The criteria to pass the last stage and reach baseline performance were to complete >30 correct trials, with ≥80% accuracy and ≤30% omissions. Percentage accuracy was defined as the number of correct trials divided by the sum of correct and incorrect trials. Percentage omissions were calculated in terms of the number of completed trials. Premature responding was calculated as a percentage of completed trials. Perseveration was calculated as the number of additional responses made in the same aperture following a correct response. Additionally, the correct-response latency (time from stimulus presentation to correct response) and reward latency (time from correct response to reward collection) were measured across all trials.\nEither one or up to three days before, as well as one day after the task challenge, mice were trained at baseline conditions to check for any unexpected changes in task performance (e.g. by long lasting drug- or challenge-induced effects). […]"}},
  "data": [
    {"smiles": "C[N+]1([O-])CCN(C2=Nc3cc(Cl)ccc3Nc3ccccc32)CC1", "note": "[CNO, clozapine-N-oxide]", "values": [
      {"measurement": "competitive inhibition of ligand binding", "setting": "[1]", "result": "over 50%"},
      {"measurement": "inhibition", "setting": "[2]", "result": "< 20", "unit": "%"},
      {"measurement": "behavioural changes in 5-CSRTT parameters", "setting": "[3]; CNO 3.5 or 10 mg/kg i.p., 10 min before test, vs vehicle", "result": "did not produce any significant behavioural changes in most 5-CSRTT parameters"},
      {"measurement": "number of perseverative responses", "setting": "[3]; CNO highest dose (10 mg/kg) i.p.", "result": "not at the highest dose"},
      {"measurement": "number of perseverative responses", "setting": "[3]; CNO intermediate dose (3.5 mg/kg) i.p., p = 0.0142", "result": "modest increase"}
    ]}
  ]
}
